Results on 36 compounds are retold here after publication PMC9596378, “Discovery and molecular basis of subtype-selective cyclophilin inhibitors” (Nature Chemical Biology, 2022).

For this assay, the target named is CypD (Homo sapiens, UniProt P30405). Kind of assay: Chymotrypsin coupled prolyl-isomerase assay. How it is done: Five microliters of compound pre-dissolved in 5% DMSO/assay buffer was then added to appropriate wells and incubated at 2–3 °C for 5 min. Five microliters of 0.5 mM α-chymotrypsin from bovine pancreas (Type II, lyophilized powder, Millipore-Sigma) in 20% 1 mM HCl/Assay Buffer was then added to each well and incubated at 2–3 °C for 5 min. The plate was then quickly transferred to a FLIPR Tetra High-Throughput Cellular Screening System (Molecular Devices). Using the internal liquid handling system of the FLIPR, 1 µL 0.5 mM Suc-AAPF-AMC (Chymotrypsin Substrate II, Millipore-Sigma) dissolved in 0.55 M LiCl/2,2,2-trifluoroethanol was added to each well, which was then mixed for 5 s, followed by immediate fluorescence measurements every 1 s for 330 s using a 360–380 nm excitation LED module and a 400–460 nm emission filter. […] Raw fluorescence data was analyzed by non-linear regression analysis with Prism v.9 by fitting one-phase association curves to each well. […] Rate constants calculated for each well (s^−1) were then normalized to substrate only (no prolyl-isomerase) and enzyme + substrate only controls.

[1] abbreviates: IC50 CypD cis, cis olefin isomer.
Setting [2] is: IC50 CypD trans, trans olefin isomer.

Where two headings read alike, the source gives them in different places.

Chain of CypD (P30405 45-207): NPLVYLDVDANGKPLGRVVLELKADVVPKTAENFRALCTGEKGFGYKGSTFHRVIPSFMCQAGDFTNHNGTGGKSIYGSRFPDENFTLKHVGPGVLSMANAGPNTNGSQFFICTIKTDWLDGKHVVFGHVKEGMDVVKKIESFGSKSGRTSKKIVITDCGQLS

What is called IC50 is the midpoint of a concentration-inhibition curve. The low end stands for greater potency, the high end for weaker potency. For `NCCOCCNC(=O)C1CCNC(=O)C=CC(=O)N2CCCC(CC(=O)NC(Cc3ccco3)C(=O)NCc3ccccc3CC(=O)N1)C2` (centres unmarked) [JOBBt], the concentration for half-maximal inhibition (IC50) came to 49 ± 6 µM. Still for that read-out and setting: the value for `NCCOCCNC(=O)C1CCNC(=O)C=CC(=O)N2CCCC(C2)C(=O)NC(CCc2ccccc2)C(=O)NCc2ccccc2CC(=O)N1` (centres unmarked) [Compound A16] was above 100 µM; that for `NCCOCCNC(=O)C1CCNC(=O)CCC(=O)N2CCCC(C2)C(=O)NC(Cc2ccco2)C(=O)NCc2ccccc2CC(=O)N1` (centres unmarked) [Compound A30] was above 100 µM.

Consider `NCCOCCNC(=O)C1CCNC(=O)C=CC(=O)N2CCCC2CC(=O)NC(Cc2ccco2)C(=O)NCc2ccccc2CC(=O)N1` (centres unmarked) [JOCBt], for which the IC50 was above 100 µM. Same read-out and setting: under `NCCOCCNC(=O)C1CCNC(=O)C=CC(=O)N2CCCC(C2)C(=O)NC(Cc2ccc(-c3ccccc3)cc2)C(=O)NCc2ccccc2CC(=O)N1` (centres unmarked) [Compound A15] stands 18 ± 3 µM; under `NCCOCCNC(=O)C1CNC(=O)C=CC(=O)N2CCCC(C2)C(=O)NC(Cc2ccco2)C(=O)NCc2ccccc2CC(=O)N1` (centres unmarked) [JOMAt], above 100 µM; under `NCCOCCNC(=O)C1CCNC(=O)C=CC(=O)N2CCCC(C2)C(=O)NC(Cc2ccco2)C(=O)NCc2ccccc2C(=O)N1` (centres unmarked) [Compound A1], above 100 µM. In turn, `NCCOCCNC(=O)C1CCNC(=O)C=CC(=O)N2CCCCC2C(=O)NC(Cc2ccco2)C(=O)NCc2ccccc2CC(=O)N1` (centres unmarked) [Compound A23] gave an IC50 above 100 µM. With `NCCOCCNC(=O)C1CCNC(=O)C=CC(=O)N2CCCC(C2)C(=O)NC(Cc2ccco2)C(=O)NCc2ccccc2CC(=O)N1` (centres unmarked) [JOMB], under setting [1], the 50% inhibitory concentration (IC50) is above 100 µM.

`NCCOCCNC(=O)C1CCNC(=O)C=CC(=O)N2CCCC(C2)C(=O)NC(CC=Cc2ccccc2)C(=O)NCc2ccccc2CC(=O)N1` (centres unmarked) [Compound A11] came in with an IC50 of 17 ± 4 µM.

`Cc1cccc(CC2NC(=O)C3CCCN(C3)C(=O)C=CC(=O)NCCC(C(=O)NCCOCCN)NC(=O)Cc3ccccc3CNC2=O)c1` (centres unmarked) [Compound A19]: half-maximal inhibition (IC50) required 22 ± 3 µM. The same measure, in the same setting: under `NCCOCCNC(=O)C1CCNC(=O)C=CC(=O)N2CCCC(C2)C(=O)NC(Cc2ccco2)C(=O)NCc2ccccc2CC(=O)N1` (centres unmarked) [Compound A21] stands above 100 µM; under `NCCOCCNC(=O)C1CCNC(=O)C=CC(=O)N2CCCC(C2)C(=O)NC(CC2CCCCC2)C(=O)NCc2ccccc2CC(=O)N1` (centres unmarked) [Compound A12], above 100 µM; under `NCCOCCNC(=O)C1CCCNC(=O)C=CC(=O)N2CCCC(C2)C(=O)NC(Cc2ccco2)C(=O)NCc2ccccc2CC(=O)N1` (centres unmarked) [JOMCt], above 100 µM.

Take `NCCOCCNC(=O)C1CCNC(=O)Cc2ccccc2CNC(=O)C(Cc2ccco2)NC(=O)C2CCCN(C2)C(=O)C=CC(=O)N1` (centres unmarked) [JOMFc]: the 50% inhibitory concentration (IC50) is above 100 µM. On the same count and under the same terms, the value for `NCCOCCNC(=O)C1CCNC(=O)C=CC(=O)N2CCCC(C2)C(=O)NC(Cc2ccco2)C(=O)Nc2ccccc2C(=O)N1` (centres unmarked) [Compound A6] was above 100 µM. For the compound `CC(C)(C)CC1NC(=O)C(CC2CCCCC2)NC(=O)C2CCCN2C(=O)C=CC(=O)NCc2cccc(c2)CC(C(=O)NCCOCCN)NC1=O` (centres unmarked) [HJJJt/c], the “CypD prolyl-isomerase inhibition (in words)” value is reported as “no prolyl-isomerase inhibition”. Under setting [1], this compound showed a 50% inhibitory concentration (IC50) above 100 µM. This compound also registered an IC50 under setting [2] above 100 µM. For `NCCOCCNC(=O)C1CCNC(=O)C=CC(=O)N2CCCC(C2)C(=O)NC(Cc2cccs2)C(=O)NCc2ccccc2CC(=O)N1` (centres unmarked) [Compound A17], inhibition was half-maximal at 14 ± 3 µM (IC50). With `NC(=O)C1CCNC(=O)C=CC(=O)N2CCCC(C2)C(=O)NC(Cc2ccco2)C(=O)NCc2ccccc2CC(=O)N1` (centres unmarked) [JOMBt-A], the half-inhibitory concentration (IC50) came out at 18 ± 3 µM. In the case of `CC(C)(C)CC1NC(=O)C(Cc2ccco2)NC(=O)C2CCCN2C(=O)C=CC(=O)NCc2cccc(c2)CC(C(=O)NCCOCCN)NC1=O` (centres unmarked) [HOJJt/c], the “CypD prolyl-isomerase inhibition (in words)” value is on record as “no prolyl-isomerase inhibition”. This compound came in with an IC50 under setting [1] above 100 µM. For the same compound, the 50% inhibitory concentration (IC50) under setting [2] is above 100 µM. In turn, `NCCOCCNC(=O)C1CCNC(=O)C=CC(=O)N2CCCC(C2)C(=O)NC(Cc2ccco2)C(=O)NCc2ccccc2CC(=O)N1` (centres unmarked) [JOMBc] had an IC50 above 100 µM. Still for that read-out and setting: under `NCCOCCNC(=O)C1CCNC(=O)C=CC(=O)N2CCCC(C2)C(=O)NC(Cc2ccco2)C(=O)NCc2ccccc2CC(=O)N1` (centres unmarked) [Compound A7] stands above 100 µM; under `NCCOCCNC(=O)C1CCNC(=O)C=CC(=O)N2CCCC(C2)C(=O)NC(Cc2ccco2)C(=O)NC2C=CC(C2)C(=O)N1` (centres unmarked) [Compound A4], above 100 µM. The compound `CC(C)(C)c1ccc(CC2NC(=O)C3CCCN(C3)C(=O)C=CC(=O)NCCC(C(=O)NCCOCCN)NC(=O)Cc3ccccc3CNC2=O)cc1` (centres unmarked) [Compound A20] came in with a 50% inhibitory concentration (IC50) of 10 ± 2 µM. Still for that read-out and setting: the value for `CC1NC(=O)C2CCCN(C2)C(=O)C=CC(=O)NCCC(C(=O)NCCOCCN)NC(=O)Cc2ccccc2CNC1=O` (centres unmarked) [Compound A8] was above 100 µM; that for `NCCOCCNC(=O)C1CCNC(=O)C=CC(=O)N2CCCC(C2)C(=O)NC(Cc2ccccc2)C(=O)NCc2ccccc2CC(=O)N1` (centres unmarked) [Compound A9] was 17 ± 6 µM. Still for that read-out and setting: the value for `NCCCOCCOCCOCCCNC(=O)C1CCNC(=O)C=CC(=O)N2CCCC(C2)C(=O)NC(Cc2ccco2)C(=O)NCc2ccccc2CC(=O)N1` (centres unmarked) [JOMBt-D] was 5.2 ± 0.3 µM; that for `NCCOCCNC(=O)C1CCNC(=O)C=CC(=O)N2CCCC(C2)C(=O)NC(Cc2ccco2)C(=O)Nc2ccccc2CC(=O)N1` (centres unmarked) [Compound A2] was above 100 µM; that for `CC(C)CC1NC(=O)C2CCCN(C2)C(=O)C=CC(=O)NCCC(C(=O)NCCOCCN)NC(=O)Cc2ccccc2CNC1=O` (centres unmarked) [Compound A10] was above 100 µM.

The compound `NCCOCCNC(=O)C1CCNC(=O)Cc2ccccc2CNC(=O)C(Cc2ccco2)NC(=O)C2CCCN(C2)C(=O)C=CC(=O)N1` (centres unmarked) [JOMFt] came in with a concentration for half-maximal inhibition (IC50) of around 90 µM. `NCCOCCNC(=O)C1CNC(=O)C=CC(=O)NC2CCC(CC2)C(=O)NC(Cc2ccco2)C(=O)NCc2ccccc2CC(=O)N1` (centres unmarked) [JOGA]: the IC50 by setting is: under setting [1], above 100 µM; under setting [2], above 100 µM. With `NCCOCCNC(=O)C1CCNC(=O)C=CC(=O)N2CCC(C2)C(=O)NC(Cc2ccco2)C(=O)NCc2ccccc2CC(=O)N1` (centres unmarked) [Compound A24], the IC50 was above 100 µM. On the same count and under the same terms, the value for `NCCOCCNC(=O)C1CCNC(=O)C=CC(=O)NC2CCCC(C2)C(=O)NC(Cc2ccco2)C(=O)NCc2ccccc2CC(=O)N1` (centres unmarked) [Compound A29] was 6.2 ± 0.9 µM.

Compound `NC(=O)C1CCNC(=O)C=CC(=O)NC2CCC(CC2)C(=O)NC(Cc2ccco2)C(=O)NCc2ccccc2CC(=O)N1` (centres unmarked) [JOGBt-A] displayed an IC50 above 100 µM. The same measure, in the same setting: the value for `NCCOCCNC(=O)C1CCNC(=O)C=CC(=O)NC2CCCC(C2)C(=O)NC(Cc2ccco2)C(=O)NCc2ccccc2CC(=O)N1` (centres unmarked) [Compound A28] was 10 ± 2 µM; that for `NC(=O)C1CCNC(=O)C=CC(=O)N2CCCC(CC(=O)NC(Cc3ccco3)C(=O)NCc3ccccc3CC(=O)N1)C2` (centres unmarked) [JOBBc-A] was above 100 µM.
